Values quoted from earlier work as cited in paper PMC3745299 (Journal of medicinal chemistry, 2013).
Read-outs that look alike come from different tables or passages of the source.

How the values were obtained:
[1] = tested on: human pregnane X receptor (hPXR); conditions: below 100 μM
[2] = tested on: Mycobacterium tuberculosis
[3] = tested on: Cyp450; conditions: rat
[4] = tested on: Cyp450; conditions: dog

CO[C@H]1/C=C/O[C@@]2(C)Oc3c(C)c(O)c4c(=O)c(c5oc6cc(N7CCN(CC(C)C)CC7)cc(O)c6nc-5c4c3C2=O)NC(=O)/C(C)=C\C=C\[C@H](C)[C@H](O)[C@@H](C)[C@@H](O)[C@@H](C)[C@H](OC(C)=O)[C@@H]1C [bxRIF2a, rifalazil]
hPXR activation in vitro [1]: essentially no hPXR activation | MIC90 [2]: < 4 nM | Cyp450 induction activity [3]: dramatically reduced | Cyp450 induction activity [4]: dramatically reduced
